Source: ChEMBL document CHEMBL5338820, “Discovery and Design of Novel Cyclic Peptides as Specific Inhibitors Targeting CCN2 and Disrupting CCN2/EGFR Interaction for Kidney Fibrosis Treatment” (J Med Chem, 2023)
Calls of active or inactive are those of the source. No cut-off for these calls is given here. Peptide text beside a SMILES is read from it.

Key:
[1] = target: T1, CCN2-EGFR (Homo sapiens) (UniProt P00533+P29279); assay: Inhibition of His-tagged full length human CCN2 FL domain/human Fc-tagged EGFR protein-protein interaction using TMB as chromogenic substrate at 100 uM incubated for 140 mins by microplate reader assay relative to control
[2] = target: T1, CCN2-EGFR (Homo sapiens); assay: Inhibition of His-tagged full length human CCN2 CT domain/human Fc-tagged EGFR protein-protein interaction using TMB as chromogenic substrate at 100 uM incubated for 140 mins by microplate reader assay relative to control
[3] = target: T2, CCN family member 2 (Homo sapiens) (UniProt P29279); assay: Inhibition of recombinant human CCN2 CT domain expressed in human […] cells assessed as reduction in fibronectin synthesis at 100 uM incubated for 24 hrs by Western blotting assay; assay type: cell-based
T2 sequence (whole entry): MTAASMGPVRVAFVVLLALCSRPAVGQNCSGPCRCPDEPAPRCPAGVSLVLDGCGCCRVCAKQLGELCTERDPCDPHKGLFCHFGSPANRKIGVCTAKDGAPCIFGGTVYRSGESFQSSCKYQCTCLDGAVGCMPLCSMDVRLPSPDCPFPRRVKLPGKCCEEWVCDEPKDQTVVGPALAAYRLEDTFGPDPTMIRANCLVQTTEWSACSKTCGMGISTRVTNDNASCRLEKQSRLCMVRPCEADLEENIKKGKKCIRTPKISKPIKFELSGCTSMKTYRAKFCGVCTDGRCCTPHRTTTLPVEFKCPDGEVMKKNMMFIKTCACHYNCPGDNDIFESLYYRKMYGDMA

[4] = target: T2, CCN family member 2 (Homo sapiens); assay: Inhibition of recombinant human CCN2 CT domain expressed in human […] cells assessed as reduction in COL1A1 synthesis at 100 uM incubated for 24 hrs by Western blotting assay; assay type: cell-based

T1 sequence (P00533 whole entry, looked up, one chain of several, the tested form may be a part): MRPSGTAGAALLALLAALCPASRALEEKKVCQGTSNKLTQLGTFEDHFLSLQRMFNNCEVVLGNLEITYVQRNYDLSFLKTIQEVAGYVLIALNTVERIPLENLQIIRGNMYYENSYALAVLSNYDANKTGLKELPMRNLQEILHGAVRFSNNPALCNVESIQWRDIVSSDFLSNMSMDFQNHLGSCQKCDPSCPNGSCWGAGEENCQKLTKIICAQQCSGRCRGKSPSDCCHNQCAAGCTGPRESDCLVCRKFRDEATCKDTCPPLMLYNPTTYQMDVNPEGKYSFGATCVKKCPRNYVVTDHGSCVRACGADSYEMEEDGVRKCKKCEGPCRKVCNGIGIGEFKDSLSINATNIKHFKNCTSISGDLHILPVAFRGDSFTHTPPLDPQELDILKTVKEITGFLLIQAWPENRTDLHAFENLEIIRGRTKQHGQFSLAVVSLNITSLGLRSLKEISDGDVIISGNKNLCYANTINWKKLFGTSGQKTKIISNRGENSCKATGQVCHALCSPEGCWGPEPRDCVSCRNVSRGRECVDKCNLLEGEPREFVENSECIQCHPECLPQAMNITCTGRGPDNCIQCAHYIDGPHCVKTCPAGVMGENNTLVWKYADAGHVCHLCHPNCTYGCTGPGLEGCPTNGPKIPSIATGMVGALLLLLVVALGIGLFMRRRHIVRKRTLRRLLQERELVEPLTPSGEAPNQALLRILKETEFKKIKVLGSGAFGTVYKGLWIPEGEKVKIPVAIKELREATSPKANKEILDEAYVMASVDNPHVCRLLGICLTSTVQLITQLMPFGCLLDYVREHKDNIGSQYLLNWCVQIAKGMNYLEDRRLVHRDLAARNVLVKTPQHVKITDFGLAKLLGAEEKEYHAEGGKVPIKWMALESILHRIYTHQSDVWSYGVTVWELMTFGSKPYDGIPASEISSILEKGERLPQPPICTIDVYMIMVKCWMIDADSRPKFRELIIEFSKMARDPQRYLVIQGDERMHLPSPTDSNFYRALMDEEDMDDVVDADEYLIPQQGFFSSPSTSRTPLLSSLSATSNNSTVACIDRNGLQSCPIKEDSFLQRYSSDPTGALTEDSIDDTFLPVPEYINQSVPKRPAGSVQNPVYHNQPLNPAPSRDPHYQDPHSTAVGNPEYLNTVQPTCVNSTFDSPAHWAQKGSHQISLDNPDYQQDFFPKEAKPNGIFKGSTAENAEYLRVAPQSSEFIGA

inhibition [1] | inhibition [2] | inhibition [3] | inhibition [4] | SMILES
14.4% | 65.8% | inactive | inactive | C[C@@H](O)[C@H](N)C(=O)N[C@@H](Cc1c[nH]cn1)C(=O)N[C@@H](Cc1c[nH]cn1)C(=O)N[C@@H](CCCCN)C(=O)N1CCC[C@H]1C(=O)N[C@@H](Cc1c[nH]c2ccccc12)C(=O)N[C@H](C(N)=O)[C@@H](C)O (H-THHKPWT-NH2)
68.1% | 60% | Active | Active | C[C@@H](O)[C@H](N)C(=O)N[C@H](C(=O)N[C@@H](Cc1c[nH]cn1)C(=O)N[C@@H](Cc1c[nH]cn1)C(=O)N[C@@H](CCCNC(=N)N)C(=O)N1CCC[C@H]1C(=O)N[C@@H](Cc1c[nH]c2ccccc12)C(=O)N[C@H](C(N)=O)[C@@H](C)O)[C@@H](C)O (H-TTHHRPWT-NH2)
66.6% | 62% | Active | Active | C[C@@H](O)[C@H](N)C(=O)N[C@@H](Cc1c[nH]cn1)C(=O)N[C@@H](Cc1c[nH]cn1)C(=O)N[C@@H](CCCNC(=N)N)C(=O)N1CCC[C@H]1C(=O)N[C@@H](Cc1c[nH]c2ccccc12)C(=O)N[C@H](C(N)=O)[C@@H](C)O (H-THHRPWT-NH2)

Second part, the compound before the results:

SMILES | inhibition [1] | inhibition [2] | inhibition [3] | inhibition [4]
C[C@@H](O)[C@H](N)C(=O)N[C@@H](Cc1c[nH]cn1)C(=O)N[C@@H](Cc1c[nH]cn1)C(=O)N[C@@H](CCCNC(=N)N)C(=O)N[C@@H](CCCCN)C(=O)N[C@@H](Cc1c[nH]c2ccccc12)C(=O)N[C@H](C(N)=O)[C@@H](C)O (H-THHRKWT-NH2) | 15% | 11% | inactive | inactive
C[C@H](N)C(=O)N[C@@H](CC(=O)O)C(=O)N[C@H](C(=O)N[C@H](C(=O)N[C@@H](Cc1c[nH]cn1)C(=O)N[C@@H](Cc1c[nH]cn1)C(=O)N[C@@H](CCCNC(=N)N)C(=O)N1CCC[C@H]1C(=O)N[C@@H](Cc1c[nH]c2ccccc12)C(=O)N[C@H](C(N)=O)[C@@H](C)O)[C@@H](C)O)[C@@H](C)O (H-ADTTHHRPWT-NH2) | 70.6% | 61.9% | Active | Active
C[C@@H](O)[C@H](NC(=O)[C@H](Cc1c[nH]c2ccccc12)NC(=O)[C@@H]1CCCN1C(=O)[C@H](CCCNC(=N)N)NC(=O)[C@@H](N)Cc1c[nH]cn1)C(N)=O (H-HRPWT-NH2) | 13.9% | 7.9% | inactive | inactive
CC(C)C[C@H](N)C(=O)N[C@@H](C)C(=O)N[C@@H](CC(=O)O)C(=O)N[C@H](C(=O)N[C@H](C(=O)N[C@@H](Cc1c[nH]cn1)C(=O)N[C@@H](Cc1c[nH]cn1)C(=O)N[C@@H](CCCNC(=N)N)C(=O)N1CCC[C@H]1C(=O)N[C@@H](Cc1c[nH]c2ccccc12)C(=O)N[C@H](C(N)=O)[C@@H](C)O)[C@@H](C)O)[C@@H](C)O (H-LADTTHHRPWT-NH2) | 68.8% | 67.4% | Active | Active
C[C@@H](O)[C@H](NC(=O)[C@H](Cc1c[nH]c2ccccc12)NC(=O)[C@@H]1CCCN1C(=O)[C@H](CCCNC(=N)N)NC(=O)[C@H](Cc1c[nH]cn1)NC(=O)[C@H](Cc1c[nH]cn1)NC(=O)[C@@H](NC(=O)[C@@H](NC(=O)[C@@H](N)CC(=O)O)[C@@H](C)O)[C@@H](C)O)C(N)=O (H-DTTHHRPWT-NH2) | 63.7% | 65.8% | Active | Active
